# Measured values published in patent US5585380A, “Modulation of cellular response to external stimuli” (priority 1995, dated 1996).
# How the values were obtained:
# [1] = test system: NIH3T3 cell line (D5C3) transformed with temperature-sensitive v-abl mutant gene; test: Blocking transformed phenotype of D5C3 cells; type: cell-based, murine; conditions: pentoxifylline 1 mM, Ciprofloxacin 50 μg/ml
# Method: An NIH3T3 cell line ([MUT]) provides target cells which were transformed by an activated oncogene. The cells were transformed with a temperature-sensitive v-abl mutant gene. This mutant gene encodes a temperature-sensitive v-abl protein that produces a non-oncogenic product at a non-permissive temperature due to a lack of tyrosine phosphorylation. The cells were incubated at the permissive temperature (33° C.) for 5 days after passage with and without pentoxifylline (1 mM).
# [2] = test system: T cell proliferation; conditions: Singer et al., Bone Marrow Transplantation (in press); cited from earlier work
# [3] = test system: PA and DAG levels in human glomerular mesangial cells; test: Invention assay: HPLC of lipids from IL-1-stimulated mesangial cells; type: cell-based; conditions: HMC incubated with diacylglycerol kinase inhibitor
# Method: The compounds of Formula I are shown to modulate the effects of primary stimuli which elevate levels of the relevant subspecies of PA and DAG using the assay system of the invention. In general for the assay, the cells to be tested are first incubated with the primary stimulating agent for various time periods and fixed in ice-cold methanol. The lipids are extracted using, for example, chloroform:methanol 2:1 (v/v), and the extracts are then subjected to HPLC as described by Bursten and Harris, Biochemistry (1991)------. In this method, a Rainin mu-Porasil column is used with a 3:4 hexane:propanol organic carrier and a 1-10% water gradient during the first 10 minutes of separation. Detection of the peaks in the elution pattern is by absorption in the range of ultraviolet which detects isolated double bonds. Thus, the relevant peaks of unsaturated PA and DAG are shown in the elution pattern. It is important to note that the assay method permits discrimination between various forms of PA and DAG so that those relevant to the pathway affected by the compounds of Formula I can be measured directly. Confirmation of the nature of the acyl substituents of these components is accomplished using fast-atom bombardment mass spectroscopy. Thus, the relevant unsaturated (non-arachidonic) PA and DAG subspecies may be detected. The time periods employed are 5-60 seconds after stimulation with the primary stimulus, such as a cytokine. This technique permits assessment of the levels of various lipid components as a function of time.
# To test the effect of the compounds of the invention, the candidate compound is included in the initial incubation at various concentrations. Fixing, extraction and HPLC are conducted as above. The effect of the candidate compound is then reflected in a lowering of the relevant PA and DAG levels as compared to the cells without candidate in the control as illustrated hereinbelow.
# Human glomerular mesangial cells were incubated with IL-1 for various time periods of 5-60 seconds and the cells were fixed in ice-cold methanol, and the lipids extracted using chloroform:methanol 2:1 (v/v). It is very important that the fixing/extraction process be conducted quickly so that the decomposition of unstable intermediates is halted.
# The extracts were subjected to HPLC on a Rainin mu-Porasil column with a 3:4 hexane:propanol organic carrier and a 1-10% water gradient during the first 10 minutes of separation. The relative concentration of each lipid species is determined using absorption at 206 nm (A206), which follows unsaturated acyl content of lipid species. […] The absolute mass of each lipid species is determined by lisolation of the lipid using a fraction collector, repurification on the HPLC column. […] Protein concentration is determined using the Bradford technique. […]
# [4] = test system: patients undergoing allogeneic bone marrow transplant; test: Preliminary study in allogeneic bone marrow transplant patients; type: in vivo, human; conditions: first 30 days post-transplant; PTX/CIPRO N=10, GM-CSF N=27; all also PD and cyclosporin
# Method: A preliminary study was conducted on patients undergoing allogeneic bone marrow transplant for multiple myeloma, for lymphoid malignancies, or for advanced stage CML or AML. Prednisone is often administered as an immunosuppressant in all experimental groups. In the study, these patients received the drugs for a minimum of 3 days to a maximum of 7 days prior to starting their preparative regimen while in the outpatient department according to the following regimen:
# PTX: 600 mg p.o. qid at 9 am, 1 pm, 5 pm and 9 pm;
# CIPRO: 500 mg p.o.b.i.d.; and
# PD: 0.5 mg/kg b.i.d. (total 1 mg/kg/day changed to methylprednisolone at an equivalent dose starting on day -1).
# For the duration of therapy, the patients are continued on the study drugs as follows:
# PTX: until day +20 post-transplant then tapered 600 mg/day until off;
# CIPRO: until day 30 post-transplant or day of discharge if sooner than day 30; and
# PD: tapered starting on day 0 over 14 days until off.
# All patients in these studies received PD and cyclosporin as GVHD prophylaxis. Granulocyte recovery was measured post-bone marrow transplant in patients receiving therapy with PTX, CIPRO in addition to standard PD administration (N=10), or GM-CSF (N=10), or PTX (N=4).
# [5] = test system: recipients of matched allogeneic donor marrow; test: Matched allogeneic donor trial; type: in vivo, human
# From the text: (§1) They are given steroids to reduce inflammation. […] In this group of patients, GVHD approaches 90%.
# [6] = test system: recipients of marrow from unrelated donors; test: Unrelated donor trial; type: in vivo, human
# From the text: as §1
# [7] = day on which ANC ≥ 100 cells/uL on two consecutive days
# [8] = day on which ANC ≥ 1,000 cells/uL on two consecutive days
# [9] = first day RBC count ≥ 30% for 7 consecutive days untransfused
# [10] = first day platelet count ≥ 20,000/uL for 7 consecutive days untransfused
# [11] = initial discharge from the hospital
# [12] = maximum serum bilirubin days 0-28 post BMT
# [13] = maximum serum creatinine day 0-28 post BMT
molecule,measurement,setting,value
O=C(O)c1cn(C2CC2)c2cc(N3CCNCC3)c(F)cc2c1=O [Ciprofloxacin],effect on the transformed phenotype,[1],significant effect
"Cn1c(=O)n(CCCCC(C)(C)O)c(=O)c2[nH]cnc21 [HWA138, reference compound]",suppression of T cell proliferation,[2],minimal or no suppression
"CCOCn1cnc2c1c(=O)n(CCCCC(C)(C)O)c(=O)n2C [HWA448, reference compound]",suppression of T cell proliferation,[2],active
"CC(O)CCCCn1c(=O)c2c(ncn2C)n(C)c1=O (stereo not shown) [M1, 1-(5-hydroxyhexyl)-3,7-dimethylxanthine]",suppression of T cell proliferation,[2],active
"CC(O)C(O)CCCn1c(=O)c2c(ncn2C)n(C)c1=O (stereo not shown) [M3, 1-(4,5-dihydroxyhexyl) -3,7-dimethylxanthine]",suppression of T cell proliferation,[2],minimal or no suppression
"Cn1cnc2c1c(=O)n(CCCCC(=O)O)c(=O)n2C [M4, 1-(4-carboxybutyl)-3,7-dimethylxanthine]",suppression of T cell proliferation,[2],minimal or no suppression
"Cn1cnc2c1c(=O)n(CCCC(=O)O)c(=O)n2C [M5, 1-(3-carboxypropyl)-3,7-dimethylxanthine]",suppression of T cell proliferation,[2],minimal or no suppression
Cc1nc2sccn2c(=O)c1CCN1CCC(=C(c2ccccc2)c2ccc(F)cc2)CC1 [R 50922],HPLC pattern (reappearance of PA after IL-1),[3],does not alter the HPLC pattern
GM-CSF: granulocyte-macrophage colony-stimulating factor,platelet transfusion requirement,[4],87±69 units
same,red blood cell requirement,[4],24.7±24 units
same,"ANC ≥ 100, mean ± standard deviation",[5]; [7],8 ± 6 days
same,"ANC ≥ 100, median",[5]; [7],9.0 days
same,"ANC ≥ 1,000, mean ± standard deviation",[5]; [8],16 ± 9 days
same,"ANC ≥ 1,000, median",[5]; [8],14.0 days
same,"Bili ≥ 5.0 mg/dL, patients",[5]; days 0-28 post BMT,44%
same,"Creat ≥ 2.0 mg/dL, patients",[5]; days 0-28 post BMT,22%
same,"ANC ≤ 100, mean ± standard deviation",[5]; days below 100 cells/uL,6 ± 4 days
same,"ANC ≤ 100, median","[5]; days below 100 cells/uL, GM-CSF 27, PTX/CIPRO 23 patients",5.0 days
same,"Last RBC day, mean ± standard deviation",[5]; [9],63 ± 39 days
same,"Last RBC day, median",[5]; [9],59.0 days
same,"Last plt day, mean ± standard deviation",[5]; [10],17 ± 11 days
same,"Last plt day, median",[5]; [10],23.0 days
same,"Day discharge, mean ± standard deviation",[5]; [11],26 ± 13 days
same,"Day discharge, median",[5]; [11],24.0 days
same,"Max Bili, mean ± standard deviation",[5]; [12],8 ± 10 mg/dL
same,"Max Bili, median",[5]; [12],5.0 mg/dL
same,"Max Creat, mean ± standard deviation",[5]; [13],1.8 ± 1.4 mg/dL
same,"Max Creat, median",[5]; [13],1.5 mg/dL
same,Day 100 Survival,[5]; patients alive 100 days post transplant,69%
same,Infection 0-28,[5]; patients with positive bacterial blood cultures days 0-28 post BMT,14%
same,"Units platelets, mean ± standard deviation",[5]; platelets transfused day 0-28,87 ± 74 units
same,"Units platelets, median",[5]; platelets transfused day 0-28,74.0 units
same,"ANC ≤ 100, mean ± standard deviation",[6],12 ± 7 days
same,"ANC ≥ 100, mean ± standard deviation",[6],18 ± 6 days
same,"ANC ≥ 100, median",[6],18.5 days
same,"ANC ≥ 500, mean ± standard deviation",[6],23 ± 4 days
same,"ANC ≥ 500, median",[6],22.5 days
same,"ANC ≥ 1,000, mean ± standard deviation",[6],26 ± 5 days
same,"ANC ≥ 1,000, median",[6],26.0 days
same,"Bili ≥ 5.0 mg/dL, patients",[6],46%
same,Day 100 Survival,[6],86%
same,"Day initial discharge, mean ± standard deviation",[6],37 ± 14 days
same,"Day initial discharge, median",[6],37.0 days
same,GVHD Grade 0,[6],15%
same,GVHD Grade I,[6],8%
same,GVHD Grade II,[6],46%
same,GVHD Grade III,[6],27%
same,GVHD Grade IV,[6],4%
same,Infection 0-28,[6],7%
same,"Last plt day, mean ± standard deviation",[6],26 ± 6 days
same,"Last plt day, median",[6],24.5 days
same,"Max Bili, mean ± standard deviation",[6],7 ± 7 mg/dL
same,"Max Bili, median",[6],5.5 mg/dL
same,"Max Creat, mean ± standard deviation",[6],1.4 ± 1.2 mg/dL
same,"Max Creat, median",[6],1.1 mg/dL
same,"Units platelets, mean ± standard deviation",[6],90 ± 42 units
same,"Units platelets, median",[6],92.0 units
same,"ANC ≤ 100, median","[6]; GM-CSF 30, PTX/CIPRO 17 patients",12 days
